From US20030134859A1 (SANKYO COMPANY, LIMITED, priority 2000, published 2003)
Structures can show the parent of a compound that is named as a salt.

Legend:
Format in all cases: cell-based
human PPAR γ 2 = molecular target: T1, human PPAR γ 2 (Homo sapiens, UniProt P37231); assay: Inhibitory activity against PPAR γ transcription in the presence of agonist compound A, luciferase reporter; conditions: in the presence of 10 nM compound A (agonist); MG63 cells transfected with pSG5-hPPARg and pGV-P2-PPRE; 24 hr
T1 construct: expressed in transfected cells; host or cells: human osteosarcoma MG63, transiently co-transfected with pSG5-hPPARg and the reporter pGV-P2-PPRE
T1 sequence (P37231 1-505): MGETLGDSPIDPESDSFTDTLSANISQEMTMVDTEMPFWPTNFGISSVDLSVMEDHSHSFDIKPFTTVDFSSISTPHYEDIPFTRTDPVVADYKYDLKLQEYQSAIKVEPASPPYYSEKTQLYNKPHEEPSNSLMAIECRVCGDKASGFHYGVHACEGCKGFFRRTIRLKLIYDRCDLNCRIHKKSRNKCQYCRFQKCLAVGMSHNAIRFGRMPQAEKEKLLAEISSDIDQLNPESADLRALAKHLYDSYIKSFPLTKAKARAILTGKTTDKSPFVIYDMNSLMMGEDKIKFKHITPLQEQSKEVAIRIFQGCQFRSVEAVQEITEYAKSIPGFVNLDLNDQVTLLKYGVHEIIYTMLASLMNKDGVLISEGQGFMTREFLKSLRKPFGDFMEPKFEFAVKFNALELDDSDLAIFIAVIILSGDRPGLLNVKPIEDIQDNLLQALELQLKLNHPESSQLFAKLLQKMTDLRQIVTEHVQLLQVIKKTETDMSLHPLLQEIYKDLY
Text: The primers of the polymerase chain reaction (hereinafter “PCR”) were designed according to the gene sequence of human PPAR γ 2 (GenBANK accession No. D83233). […] For this, 2 kinds of polynucleotides shown in the sequence numbers 1 and 2 in the sequence table described below (hereinafter “S1” and “AS1”, respectively) were used as PCR primers.
In order to determine transcriptional activity via PPAR γ, 2 kinds of polynucleotides represented in sequence numbers 3 and 4 in the sequence table described below (hereinafter “S2” and “AS2”, respectively) were used for construction of the reporter plasmid having PPAR responsive element. The DNA fragment inserted was designed based on the gene sequence in the promoter region of rat acylCo-A oxidase (J. D. Tugwood, EMBO J., 11 (2), pp433-439 (1992)). For insertion of the DNA fragment into the reporter plasmid pGV-P2 (TOYO INK MFG CO., LTD), a NheI site and an XhoI site were added to the S2 and AS2, respectively.
Using cDNA library (Clontech) derived from human adipose tissue as a template, DNA oligomers S1 and AS1 that were synthesized in the procedure 1 as primers and Ex-Taq™ (TAKARA BIO INC.) as a thermostable DNA polymerase-PCR was carried out. […] Each cycle consisted of incubation at 94° C. for 1 min for denaturation of the template, then at 55° C. for 30 sec for annealing of DNA oligomers the PCR primer, and then at 72° C. for 30 sec for extension of the chain. The obtained DNA fragments with approximately 1500 base pairs were digested at the Bgl II sites and were inserted into BamHI sites of pSG5. Thus a human PPAR γ expression plasmid named pSG5-hPPAR g was obtained.
Vector pGV-P2 digestion products was prepared by digestion using the restriction enzymes, NheI and XhoI, and purified by 1.0% agarose-gel electrophoresis. The DNA oligomers, S2 and AS2 obtained in Procedure 2, were mixed together and were incubated in a hot bath at 94° C. for 1 min. After the annealing was partially broken, they were further incubated at 25° C. for 1 hr. Thus double-stranded DNA with annealing of S2 and AS2 was formed. Then, the terminus of the double-stranded DNA with annealing of S2 and AS2 was phosphorylated with DNA polynucleotide kinase (TOYOBO CO., LTD). After that, it was ligated to the pGV-P2 digestion products which were prepared previously using the NheI site and XhoI site. Thus the reporter plasmid pGV-P2-PPRE was obtained.
Using the plasmid obtained by the procedures 3 and 4, transformation of Escherichia coli HB-101 strain was carried out by conventional methods. HB-101 strain having the plasmid was incubated in L-broth medium (containing 10 g of trypton (Difco), 5 g of yeast extract (Difco), 5 g of sodium chloride in 1 L of aqueous solution) containing 100 μg/ml of ampicillin at 37° C. for 17 hrs. Then, each plasmid was purified by the alkaline-SDS method and employed for the gene transfection to mammalian cells. After mixing the pSG5-hPPARg, PGV-P2-PPRE and LipofectAMINE reagent (GIBCO BRL), the human osteosarcoma MG63 was transiently transfected. Then the cells were recovered. The recovered cells were plated on a 96-well plate so as to be 30,000 cells/well and cultured in a CO2 incubator (NAPCO) at 37° C. for 24 hr under the condition of 5% CO2, 95%-RH.
Ten (10) nM of the following compound A (although compound A is described here as a representative compound, the compound is not limited to compound A, if the compound exerts a PPAR r agonistic activity) and various concentrations of the test compound were added to culturing medium of the cells prepared in the Procedure 5.

[1] = tested on: Mouse preadipocyte strain 3T3-L1; assay: Inhibition of differentiation as an indication of acetic acid uptake; conditions: Mus musculus, 3T3-L1, 0.1 μM test substance, control (0.01% dimethylsulfoxide) = 100%, read-out: Rate of Uptake (%) of [2-14C] acetic acid
Procedure: As the basal medium, Dulbecco's modified Eagle's (DEM) medium (NISSUI PHARMACEUTICAL CO., LTD) was used. […] All culturing in the present Test Example was carried out in a CO2 incubator at 37° C. and 10% CO2 concentration.
The successively cultured 3T3-L1 cells were inoculated in a Biocoat Collagen I 96-well white/clear plate (Becton Dickinson and Co.) at a concentration of 4,900 cells/well, and were cultured in the basal medium containing added 10% (v/v) inactivated bovine fetal serum (FBS) for 10 days.
The medium was replaced with a differentiation-inducing medium in which inactivated FBS (final concentration: 5%), insulin (Sigma-Aldrich Japan K. K., final concentration: 10 μg/mL), isobutyl methyl xanthine (Aldrich K. K., final concentration: 0.5 mM) and dexamethazone (final concentration: 1 μM) were added so as to be at the final concentrations indicated in the parentheses. The cells were divided in the following 2 groups and were cultured for 4 days; 1) in the presence of 0.01% (v/v) dimethylsulfoxide, and 2) in the presence of 0.01% (v/v) dimethylsulfoxide in which was dissolved 1 mM of the test substance (final concentration of 0.1 μM). Then, the medium was further replaced with a maintenance medium in which inactivated […] and insulin were added to the base medium so as to be at final concentrations of 5% and 100 ng/mL, respectively, and the cells were cultured for 2 days.
The inhibitory activity of the test compound against cell differentiation was assayed by using uptake of [2-^14C] acetic acid into the cultured cells as an indicator. […] Then the cells were further incubated with the newly prepared medium for 1 hr. After washing the well with PBS (−), the cells were dried. To these wells, 100 μL/well of a scintillation cocktail (Hewlett-Packard Co., MICROSCINT-20 PACKARD) were added and their radioactivities were determined with a Packard TopCont microplate Scintillation Counter (Hewlett-Packard Co., PACKARD) and the uptake level of [2-^14C] acetic acid into the cultured cell was calculated.
On the basis of the calculated uptake level of [2-^14C] acetic acid into the cultured cells, the relative uptake level of [2-^14C] acetic acid in the group treated with the test compound was calculated against the uptake level of [2-^14C] acetic acid in the presence of 0.01% (v/v) dimethylsulfoxide solution described in 1) (100%).
Value=Uptake Level (cpm) of [2-^14C] Acetic Acid in the Presence of the Test Substance
Control=Uptake Level (cpm) of [2-^14C] Acetic Acid in the Control Group (0.01% dimethylsulfoxide)
Uptake Rate (%) of [2-^14C] Acetic Acid=100×[Value]/[Control]

Rat white adipocytes = assay: Inhibition of the differentiation of adipocytes (Oil Red O); conditions: Rattus norvegicus, Adipocyte, 120 h, 100 nM test compound; 5 days; Oil Red O ABS550; control = 100%, blank = 0%; Table 3; read-out: Rate of Differentiation (%)
Procedure: Rat white adipocytes contained in the white adipocyte culture kit purchased from HOKUDO were used. As the medium for proliferation and for differentiation-inducing, the medium contained in the white adipocyte culture kit purchased from HOKUDO was used. The cells in the present experiment were cultured in a CO2 incubator (37° C., 95% R.H., 5% CO2).
Immediately after arrival of the purchased cells, all medium for transportation was discarded and replaced with 5 ml of proliferation medium (/25 cm^2-flask) and the cells were cultured for one day. Then, a cell suspension was prepared with proliferation medium so as to be 83,000 cells/mL, and the cell suspension was plated into a type I 96-well collagen-coated microplate (SUMITOMO BAKELITE CO., ltd.) so as to be 5,000 cells/well (60 μL/well).
On the next day, all the proliferation medium was discarded and replaced with 147 μL/well of differentiation-inducing medium. Further, 1) in the group treated with the test compound, 3 μL/well of the solution, in which a test compound (100 μM) was dissolved in DMSO solution and diluted with differentiation-inducing medium by 20 times (final concentration of the test compound: 100 nM, final concentration of DMSO solution: 0.1% (v/v)), were added to the well where the cells were plated. 2) In the control group, 3 μL/well of DMSO solution that was diluted with differentiation-inducing medium by 20 times (final concentration of DMSO: 0.1% (v/v)) were added to the well where the cells were plated. Further, 3) in the blank group, 3 μL/well of DMSO solution that was diluted with differentiation-inducing medium by 20 times (final concentration: 0.1% (v/v)), was added to the blank well.
After culturing for 5 days, all differentiation-inducing medium was discarded and replaced with 60 μL of 10% (v/v) formaldehyde solution (for fixation) in each well and the cells were kept stationary for 20 min at room temperature. After this, the fixative solution was discarded and replaced with 60 μL of 0.2% (v/v) Triton X (Sigma-Aldrich Japan K. K.) solution in each well and kept stationary for 5 min at room temperature. Then all Triton X solution was discarded and replaced with 60 μL of 60% (v/v) isopropanol solution containing dissolved Oil Red O (Sigma-Aldrich Japan K. K.) so as to be 0.3%, which was adipose tissue staining solution, and the well was left stationary for 10 min at room temperature. After the adipose tissue staining solution was discarded, the well was washed twice with 60 JIL of 60% isopropanol solution. Then, 100 μL of the DMSO solution were added to each well and stirred for 5 min at room temperature, The absorbance was measured at 550 nm (ABS550) with a multi-plate reader (LabSystems), and the stained amount with Oil Red O was determined. The measured level at ABS550 in the control group was defined as 100%, while the level at ABS550 in the blank group was defined as 0%. The differentiation rate (%) of the adipocytes treated with the test compound was calculated.

Row | IC50 (human PPAR γ 2) | Compound | activity at 0.1 µM [1] | activity at 0.1 µM (Rat white adipocytes)
1 | 14 nM | Cc1nccc(-c2cccc(NC(=O)c3cc([N+](=O)[O-])ccc3Cl)c2)n1 [Example 112, N-[3-(2-Methylpyrimidin-4-yl)phenyl]-(2-chloro-5-nitrophenyl)carboxamide] | 82.3% | –
2 | 26 nM | CCS(=O)(=O)Nc1ccc(NC(=O)c2cc([N+](=O)[O-])ccc2Cl)cc1 [Example 129, N-(4-Ethanesulfonylaminophenyl)-(2-chloro-5-nitrophenyl)carboxamide] | – | –
3 | 82 nM | O=C(Nc1ccc(C(=O)N2CCOCC2)cc1)c1cc([N+](=O)[O-])ccc1Cl [Example 158, N-[4-(Morpholin-4-ylcarbonyl)phenyl]-(2-chloro-5-nitrophenyl)carboxamide] | – | –
4 | 34 nM | CCCCCCCCN(CCCCC)c1ccc(-c2ccc(NC(=O)c3cc([N+](=O)[O-])ccc3Cl)cc2)cc1 [Example 221, N-[4-[4-(N-Octyl-N-pentylamino)phenyl]phenyl]-(2-chloro-5-nitrophenyl)carboxamide mono-hydrochloride] | – | 40.2%
5 | 81 nM | O=C(Nc1ccc(N2CCN(C(=O)c3cccnc3)CC2)cc1)c1cc([N+](=O)[O-])ccc1Cl [Example 227, N-[4-[4-(Pyridin-3-ylcarbonyl)piperazin-1-yl]phenyl]-2-(chloro-5-nitrophenyl)carboxamide] | – | 39.7%
6 | 9.3 nM | CC(O)c1ccc(NC(=O)c2cc([N+](=O)[O-])ccc2Cl)cc1 (stereo not shown) [Example 238, N-[4-(1-Hydroxyethyl)phenyl]-(2-chloro-5-nitrophenyl)carboxamide] | – | 64%
7 | 12 nM | O=C(Nc1ccc(-c2ccc(NC(=S)Nc3cccnc3)cc2)cc1)c1cc([N+](=O)[O-])ccc1Cl [Example 256, N-[4-[4-[(Pyridin-3-yl)aminothiocarbonylamino]phenyl]phenyl)-(2-chloro-5-nitrophenyl)carboxamide] | – | 38.2%
8 | 25 nM | O=C(NCCc1ccc(NC(=O)c2cc([N+](=O)[O-])ccc2Cl)cc1)Nc1ccccc1 [Example 268, N-[4-(2-Phenylaminocarbonylaminoethyl)phenyl]-(2-chloro-5-nitrophenyl)carboxamide] | – | 54.8%
9 | 30 nM | O=C(Nc1ccc(CCNC(=S)Nc2ccccc2)cc1)c1cc([N+](=O)[O-])ccc1Cl [Example 269, N-[4-(2-Phenylaminothiocarbonylaminoethyl)phenyl]-(2-chloro-5-nitrophenyl)carboxamide] | – | 52.9%
